Reference: patent US20260022142A1, “MACROCYCLIC IMMUNOMODULATORS” (Bristol-Myers Squibb Company, priority 2022, published 2026)
Numbered stars: 1 amine (or outer) side, 2 acyl side, 3 side chain; on linkers, the order of the positions; unused ones are H or OH. Bridge positions count the residues as written; N and C are the ends. Square brackets hold non-standard residues; d marks the D form. Peptide text beside a SMILES is read from it. * marks the point of attachment. Bip = N[C@@H](Cc1ccc(-c2ccccc2)cc1)C(=O)O; Phe(3-Me) = Cc1cccc(C[C@H](N)C(=O)O)c1; γGlu = O=C(O)[C@H](CCC(=O)[*:2])N[*:1]; βAsp = O=C(O)[C@H](CC(=O)[*:2])N[*:1]; Cha = N[C@@H](CC1CCCCC1)C(=O)O; Cit = NC(=O)NCCC[C@H](N)C(=O)O; Carboxymethyl = O=C(O)C*; Orn = NCCC[C@H](N)C(=O)O; Aun = NCCCCCCCCCCC(=O)O; Dab = NCC[C@H](N)C(=O)O; Dap = NC[C@H](N)C(=O)O; AEEA = NCCOCCOCC(=O)O

Molecular target: T1, PD-1/PD-L1 interaction (PE-labeled human PD-L1-Ig binding to Jurkat cell line over-expressing human PD-1) (Homo sapiens, UniProt Q15116)
T1 construct: expressed in transfected cells; host or cells: Jurkat
Assay: Jurkat-PD-1 Cell Binding High-Content Screening Assay (CBA)
Assay type: cell-based
Details: Jurkat cell line over-expressing human PD-1; PE-labeled PD-L1-Ig 20 nM final; read-out: Jurkat hPD1-PDL1 IC50
Method: Example 2: Jurkat-PD-1 Cell Binding High-Content Screening Assay (CBA)
Phycoerythrin (PE) was covalently linked to the Ig epitope tag of human PD-L1-Ig and fluorescently-labeled PD-L1-Ig was used for binding studies with a Jurkat cell line over-expressing human PD-1 (Jurkat-PD-1). Briefly, 8×10^3 Jurkat-hPD-1 cells were seeded into 384 well plates in 20 μl of DMEM supplemented with 10% fetal calf serum. 100 nl of compound was added to cells followed by incubation at 37° C. for 2 h. Then, 5 μl of PE-labeled PD-L1-Ig (20 nM final), diluted in DMEM supplemented with 10% fetal calf serum. After 1 hour incubation, cells were fixed with 4% paraformaldehyde in dPBS containing 10 μg/ml Hoechst 33342 and then washed 3× in 100 μl dPBS. Data was collected and processed using a Cell Insight NXT High Content Imager and associated software.

T1 sequence (Q15116 25-288): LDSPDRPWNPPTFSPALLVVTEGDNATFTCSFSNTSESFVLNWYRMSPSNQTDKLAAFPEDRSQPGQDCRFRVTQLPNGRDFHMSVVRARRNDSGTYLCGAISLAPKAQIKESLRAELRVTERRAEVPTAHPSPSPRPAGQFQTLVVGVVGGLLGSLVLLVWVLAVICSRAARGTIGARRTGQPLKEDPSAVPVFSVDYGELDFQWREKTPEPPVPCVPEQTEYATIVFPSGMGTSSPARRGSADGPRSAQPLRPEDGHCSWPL

SMILES	IC50
Cc1cccc(C[C@@H]2NC(=O)[C@H](CC(=O)O)NC(=O)[C@H](Cc3ccc(OCC(=O)O)cc3)NC(=O)[C@H](CN)NC(=O)CSC[C@@H](C(=O)N[C@@H](C)C(=O)N[C@@H](CCC(=O)O)C(=O)NCCOCCOCC(=O)NCCCCCCCCCCC(=O)O)NC(=O)[C@H]([C@@H](C)O)NC(=O)[C@H](C(C)C)NC(=O)[C@H](CC3CCCCC3)NC(=O)[C@H](CCN)NC(=O)[C@@H](CC(C)C)NC(=O)[C@H](CCCN)NC(=O)[C@H](CCCNC(N)=O)NC(=O)[C@H](Cc3ccc(-c4ccccc4)cc3)NC(=O)[C@H](C(C)C)NC2=O)c1 [Compound 1004] ({CH2CO}-[Dap]Y(Carboxymethyl)D[Phe(3-Me)]V[Bip][Cit][Orn][dL][Dab][Cha]VTCAE[AEEA][Aun]-OH; thioether N-14)	2.6 nM
Cc1cccc(C[C@@H]2NC(=O)[C@H](CC(=O)O)NC(=O)[C@H](Cc3ccc(OCC(=O)O)cc3)NC(=O)[C@H](CN)NC(=O)CSC[C@@H](C(=O)N[C@@H](C)C(=O)N[C@@H](CCC(=O)O)C(=O)NCCCCCCCCCCC(=O)O)NC(=O)[C@H]([C@@H](C)O)NC(=O)[C@H](C(C)C)NC(=O)[C@H](CC3CCCCC3)NC(=O)[C@H](CCN)NC(=O)[C@@H](CC(C)C)NC(=O)[C@H](CCCN)NC(=O)[C@H](CCCNC(N)=O)NC(=O)[C@H](Cc3ccc(-c4ccccc4)cc3)NC(=O)[C@H](C(C)C)NC2=O)c1 [Compound 1005] ({CH2CO}-[Dap]Y(Carboxymethyl)D[Phe(3-Me)]V[Bip][Cit][Orn][dL][Dab][Cha]VTCAE[Aun]-OH; thioether N-14)	1.1 nM
Cc1cccc(C[C@@H]2NC(=O)[C@H](CC(=O)O)NC(=O)[C@H](Cc3ccc(OCC(=O)O)cc3)NC(=O)[C@H](CN)NC(=O)CSC[C@@H](C(=O)N[C@@H](C)C(=O)N[C@@H](CC(=O)O)C(=O)NCCCCCCCCCCC(=O)O)NC(=O)[C@H]([C@@H](C)O)NC(=O)[C@H](C(C)C)NC(=O)[C@H](CC3CCCCC3)NC(=O)[C@H](CCN)NC(=O)[C@@H](CC(C)C)NC(=O)[C@H](CCCN)NC(=O)[C@H](CCCNC(N)=O)NC(=O)[C@H](Cc3ccc(-c4ccccc4)cc3)NC(=O)[C@H](C(C)C)NC2=O)c1 [Compound 1006] ({CH2CO}-[Dap]Y(Carboxymethyl)D[Phe(3-Me)]V[Bip][Cit][Orn][dL][Dab][Cha]VTCAD[Aun]-OH; thioether N-14)	9.2 nM
Cc1cccc(C[C@@H]2NC(=O)[C@H](CC(=O)O)NC(=O)[C@H](Cc3ccc(OCC(=O)O)cc3)NC(=O)[C@H](CN)NC(=O)CSC[C@@H](C(=O)N[C@@H](C)C(=O)NCCOCCOCC(=O)N[C@@H](CCC(=O)O)C(=O)NCCCCCCCCCCC(=O)O)NC(=O)[C@H]([C@@H](C)O)NC(=O)[C@H](C(C)C)NC(=O)[C@H](CC3CCCCC3)NC(=O)[C@H](CCN)NC(=O)[C@@H](CC(C)C)NC(=O)[C@H](CCCN)NC(=O)[C@H](CCCNC(N)=O)NC(=O)[C@H](Cc3ccc(-c4ccccc4)cc3)NC(=O)[C@H](C(C)C)NC2=O)c1 [Compound 1007] ({CH2CO}-[Dap]Y(Carboxymethyl)D[Phe(3-Me)]V[Bip][Cit][Orn][dL][Dab][Cha]VTCA[AEEA]E[Aun]-OH; thioether N-14)	7.9 nM
Cc1cccc(C[C@@H]2NC(=O)[C@H](CC(=O)O)NC(=O)[C@H](Cc3ccc(OCC(=O)O)cc3)NC(=O)[C@H](CN)NC(=O)CSC[C@@H](C(=O)N[C@@H](C)C(=O)N[C@@H](CC(=O)O)C(=O)NCCOCCOCC(=O)NCCCCCCCCCCC(=O)O)NC(=O)[C@H]([C@@H](C)O)NC(=O)[C@H](C(C)C)NC(=O)[C@H](CC3CCCCC3)NC(=O)[C@H](CCN)NC(=O)[C@@H](CC(C)C)NC(=O)[C@H](CCCN)NC(=O)[C@H](CCCNC(N)=O)NC(=O)[C@H](Cc3ccc(-c4ccccc4)cc3)NC(=O)[C@H](C(C)C)NC2=O)c1 [Compound 1008] ({CH2CO}-[Dap]Y(Carboxymethyl)D[Phe(3-Me)]V[Bip][Cit][Orn][dL][Dab][Cha]VTCAD[AEEA][Aun]-OH; thioether N-14)	10.5 nM
Cc1cccc(C[C@@H]2NC(=O)[C@H](CC(=O)O)NC(=O)[C@H](Cc3ccc(OCC(=O)O)cc3)NC(=O)[C@H](CN)NC(=O)CSC[C@@H](C(=O)N[C@@H](C)C(=O)N[C@@H](CC(=O)NCCOCCOCC(=O)NCCCCCCCCCCC(=O)O)C(=O)O)NC(=O)[C@H]([C@@H](C)O)NC(=O)[C@H](C(C)C)NC(=O)[C@H](CC3CCCCC3)NC(=O)[C@H](CCN)NC(=O)[C@@H](CC(C)C)NC(=O)[C@H](CCCN)NC(=O)[C@H](CCCNC(N)=O)NC(=O)[C@H](Cc3ccc(-c4ccccc4)cc3)NC(=O)[C@H](C(C)C)NC2=O)c1 [Compound 1010] ({CH2CO}-[Dap]Y(Carboxymethyl)D[Phe(3-Me)]V[Bip][Cit][Orn][dL][Dab][Cha]VTCA[βAsp][AEEA][Aun]-OH; thioether N-14)	6.3 nM
Cc1cccc(C[C@@H]2NC(=O)[C@H](CC(=O)O)NC(=O)[C@H](Cc3ccc(OCC(=O)O)cc3)NC(=O)[C@H](CN)NC(=O)CSC[C@@H](C(=O)N[C@@H](C)C(=O)N[C@@H](CCC(=O)NCC(=O)NCCCCCCCCCCC(=O)O)C(=O)O)NC(=O)[C@H]([C@@H](C)O)NC(=O)[C@H](C(C)C)NC(=O)[C@H](CC3CCCCC3)NC(=O)[C@H](CCN)NC(=O)[C@@H](CC(C)C)NC(=O)[C@H](CCCN)NC(=O)[C@H](CCCNC(N)=O)NC(=O)[C@H](Cc3ccc(-c4ccccc4)cc3)NC(=O)[C@H](C(C)C)NC2=O)c1 [Compound 1011] ({CH2CO}-[Dap]Y(Carboxymethyl)D[Phe(3-Me)]V[Bip][Cit][Orn][dL][Dab][Cha]VTCA[γGlu]G[Aun]-OH; thioether N-14)	8.8 nM
Cc1cccc(C[C@@H]2NC(=O)[C@H](CC(=O)O)NC(=O)[C@H](Cc3ccc(OCC(=O)O)cc3)NC(=O)[C@H](CN)NC(=O)CSC[C@@H](C(=O)N[C@@H](C)C(=O)N[C@@H](CC(=O)NCC(=O)NCCCCCCCCCCC(=O)O)C(=O)O)NC(=O)[C@H]([C@@H](C)O)NC(=O)[C@H](C(C)C)NC(=O)[C@H](CC3CCCCC3)NC(=O)[C@H](CCN)NC(=O)[C@@H](CC(C)C)NC(=O)[C@H](CCCN)NC(=O)[C@H](CCCNC(N)=O)NC(=O)[C@H](Cc3ccc(-c4ccccc4)cc3)NC(=O)[C@H](C(C)C)NC2=O)c1 [Compound 1012] ({CH2CO}-[Dap]Y(Carboxymethyl)D[Phe(3-Me)]V[Bip][Cit][Orn][dL][Dab][Cha]VTCA[βAsp]G[Aun]-OH; thioether N-14)	5 nM

Second part, the molecule after the results:

IC50	SMILES
11.9 nM	Cc1cccc(C[C@@H]2NC(=O)[C@H](CC(=O)O)NC(=O)[C@H](Cc3ccc(OCC(=O)O)cc3)NC(=O)[C@H](CN)NC(=O)CSC[C@@H](C(=O)N[C@@H](C)C(=O)N[C@@H](CC(=O)O)C(=O)NCCOCCOCC(=O)N[C@@H](CC(=O)O)C(=O)NCCOCCOCC(=O)NCCCCCCCCCCC(=O)O)NC(=O)[C@H]([C@@H](C)O)NC(=O)[C@H](C(C)C)NC(=O)[C@H](CC3CCCCC3)NC(=O)[C@H](CCN)NC(=O)[C@@H](CC(C)C)NC(=O)[C@H](CCCN)NC(=O)[C@H](CCCNC(N)=O)NC(=O)[C@H](Cc3ccc(-c4ccccc4)cc3)NC(=O)[C@H](C(C)C)NC2=O)c1 [Compound 1013] ({CH2CO}-[Dap]Y(Carboxymethyl)D[Phe(3-Me)]V[Bip][Cit][Orn][dL][Dab][Cha]VTCAD[AEEA]D[AEEA][Aun]-OH; thioether N-14)
5.5 nM	Cc1cccc(C[C@@H]2NC(=O)[C@H](CC(=O)O)NC(=O)[C@H](Cc3ccc(OCC(=O)O)cc3)NC(=O)[C@H](CN)NC(=O)CSC[C@@H](C(=O)N[C@@H](C)C(=O)N[C@@H](CC(=O)O)C(=O)NCCOCCOCC(=O)N[C@@H](CCC(=O)NCCOCCOCC(=O)NCCCCCCCCCCC(=O)O)C(=O)O)NC(=O)[C@H]([C@@H](C)O)NC(=O)[C@H](C(C)C)NC(=O)[C@H](CC3CCCCC3)NC(=O)[C@H](CCN)NC(=O)[C@@H](CC(C)C)NC(=O)[C@H](CCCN)NC(=O)[C@H](CCCNC(N)=O)NC(=O)[C@H](Cc3ccc(-c4ccccc4)cc3)NC(=O)[C@H](C(C)C)NC2=O)c1 [Compound 1014] ({CH2CO}-[Dap]Y(Carboxymethyl)D[Phe(3-Me)]V[Bip][Cit][Orn][dL][Dab][Cha]VTCAD[AEEA][γGlu][AEEA][Aun]-OH; thioether N-14)
7.9 nM	Cc1cccc(C[C@@H]2NC(=O)[C@H](CC(=O)O)NC(=O)[C@H](Cc3ccc(OCC(=O)O)cc3)NC(=O)[C@H](CN)NC(=O)CSC[C@@H](C(=O)N[C@@H](C)C(=O)N[C@@H](CCC(=O)O)C(=O)NCCOCCOCC(=O)N[C@@H](CCC(=O)NCCOCCOCC(=O)NCCCCCCCCCCC(=O)O)C(=O)O)NC(=O)[C@H]([C@@H](C)O)NC(=O)[C@H](C(C)C)NC(=O)[C@H](CC3CCCCC3)NC(=O)[C@H](CCN)NC(=O)[C@@H](CC(C)C)NC(=O)[C@H](CCCN)NC(=O)[C@H](CCCNC(N)=O)NC(=O)[C@H](Cc3ccc(-c4ccccc4)cc3)NC(=O)[C@H](C(C)C)NC2=O)c1 [Compound 1015] ({CH2CO}-[Dap]Y(Carboxymethyl)D[Phe(3-Me)]V[Bip][Cit][Orn][dL][Dab][Cha]VTCAE[AEEA][γGlu][AEEA][Aun]-OH; thioether N-14)
6 nM	Cc1cccc(C[C@@H]2NC(=O)[C@H](CC(=O)O)NC(=O)[C@H](Cc3ccc(OCC(=O)O)cc3)NC(=O)[C@H](CN)NC(=O)CSC[C@@H](C(=O)N[C@@H](C)C(=O)N[C@@H](CC(=O)O)C(=O)NCCOCCOCC(=O)N[C@@H](CCC(=O)O)C(=O)NCCOCCOCC(=O)NCCCCCCCCCCC(=O)O)NC(=O)[C@H]([C@@H](C)O)NC(=O)[C@H](C(C)C)NC(=O)[C@H](CC3CCCCC3)NC(=O)[C@H](CCN)NC(=O)[C@@H](CC(C)C)NC(=O)[C@H](CCCN)NC(=O)[C@H](CCCNC(N)=O)NC(=O)[C@H](Cc3ccc(-c4ccccc4)cc3)NC(=O)[C@H](C(C)C)NC2=O)c1 [Compound 1016] ({CH2CO}-[Dap]Y(Carboxymethyl)D[Phe(3-Me)]V[Bip][Cit][Orn][dL][Dab][Cha]VTCAD[AEEA]E[AEEA][Aun]-OH; thioether N-14)
